The target of the first experiment is T1, GlunN1/GluN2A glutamate receptors (Homo sapiens, UniProt Q05586+Q12879).
T1 construct: expressed in transfected cells
T1 sequence (Q12879 23-1464, other chains not shown): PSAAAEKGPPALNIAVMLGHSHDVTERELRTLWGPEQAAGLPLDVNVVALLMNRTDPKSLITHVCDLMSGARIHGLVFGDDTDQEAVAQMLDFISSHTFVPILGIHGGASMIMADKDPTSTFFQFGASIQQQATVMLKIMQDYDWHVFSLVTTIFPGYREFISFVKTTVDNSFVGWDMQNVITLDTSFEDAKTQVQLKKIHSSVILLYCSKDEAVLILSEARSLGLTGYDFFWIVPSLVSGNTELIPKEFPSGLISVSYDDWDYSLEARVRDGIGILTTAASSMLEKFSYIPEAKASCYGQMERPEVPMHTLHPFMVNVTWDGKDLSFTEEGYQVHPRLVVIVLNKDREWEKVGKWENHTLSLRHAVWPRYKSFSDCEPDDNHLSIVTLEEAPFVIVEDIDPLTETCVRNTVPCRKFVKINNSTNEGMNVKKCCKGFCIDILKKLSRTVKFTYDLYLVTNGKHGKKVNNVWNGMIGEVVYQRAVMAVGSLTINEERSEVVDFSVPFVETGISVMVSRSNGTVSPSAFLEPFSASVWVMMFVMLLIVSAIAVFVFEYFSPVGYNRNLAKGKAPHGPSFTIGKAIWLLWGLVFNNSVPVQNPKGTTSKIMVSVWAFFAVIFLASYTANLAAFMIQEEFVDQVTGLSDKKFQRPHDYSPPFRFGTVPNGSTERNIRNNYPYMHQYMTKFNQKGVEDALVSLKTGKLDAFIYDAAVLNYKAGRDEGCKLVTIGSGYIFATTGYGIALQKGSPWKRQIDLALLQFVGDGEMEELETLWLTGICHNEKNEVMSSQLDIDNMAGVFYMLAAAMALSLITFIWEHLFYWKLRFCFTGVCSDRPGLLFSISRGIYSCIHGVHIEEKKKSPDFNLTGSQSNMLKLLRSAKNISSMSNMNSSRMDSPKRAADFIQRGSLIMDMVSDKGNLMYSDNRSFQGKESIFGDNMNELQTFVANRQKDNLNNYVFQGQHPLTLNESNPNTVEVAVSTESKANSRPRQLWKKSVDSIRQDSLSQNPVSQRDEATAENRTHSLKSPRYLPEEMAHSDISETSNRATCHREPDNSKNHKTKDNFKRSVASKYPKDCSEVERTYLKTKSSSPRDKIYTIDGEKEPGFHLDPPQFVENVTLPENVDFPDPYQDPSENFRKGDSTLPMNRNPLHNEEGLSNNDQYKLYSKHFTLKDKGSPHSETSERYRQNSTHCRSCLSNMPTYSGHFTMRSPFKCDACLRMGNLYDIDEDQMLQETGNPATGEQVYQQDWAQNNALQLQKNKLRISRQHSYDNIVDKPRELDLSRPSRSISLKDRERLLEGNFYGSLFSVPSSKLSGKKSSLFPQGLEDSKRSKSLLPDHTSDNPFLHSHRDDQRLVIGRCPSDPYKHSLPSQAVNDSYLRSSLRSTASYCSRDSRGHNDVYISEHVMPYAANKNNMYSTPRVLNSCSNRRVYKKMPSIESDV
Briefly: cell-based. The conditions noted are these: 3 μM test article; HEK293 cells expressing human GRIN1/GRIN2A; co-application with EC20 L-glutamate and 30 μM glycine; read-out: GluN2A PCA IWB Ephys % potentiation at 3 μM. On the procedure:
NMDA potentiation was assessed using the whole cell patch clamp of mammalian cells which expressed NMDA receptors.
Whole-Cell Patch Clamp of Mammalian Cells (Ionworks Barracuda (IWB)
The whole-cell patch-clamp technique was used to investigate the effects of compounds on GlunN1/GluN2A glutamate receptors expressed in mammalian cells.
HEK293 cells were transformed with adenovirus 5 DNA and transfected with cDNA encoding the human GRIN1/GRIN2A genes. Stable transfectants were selected using G418 and Zeocin-resistance genes incorporated into the expression plasmid and selection pressure maintained with G418 and Zeocin in the medium. Cells were cultured in Dulbecco's Modified Eagle Medium/Nutrient Mixture (D-MEM/F-12) supplemented with 10% fetal bovine serum, 100 μg/ml penicillin G sodium, 100 μg/ml streptomycin sulphate, 100 μg/ml Zeocin, 5 μg/ml blasticidin and 500 μg/ml G418.
Test article effects were evaluated in 8-point concentration-response format (4 replicate wells/concentration). All test and control solutions contained 0.3% DMSO and 0.01% Kolliphor® EL (C5135, Sigma). The test article formulations were loaded in a 384-well compound plate using an automated liquid handling system (SciClone ALH3000, Caliper LifeScienses). The measurements were perfomed using Ion Works Barracuda platform following this procedure:
Electrophysiological Procedures:
• a) Intracellular solution (mM): 50 mM CsCl, 90 mM CsF, 2 mM MgCl2, 5 mM EGTA, 10 mM HEPES. Adjust to pH 7.2 with CsOH. • b) Extracellular solution, HB-PS (composition in mM): NaCl, 137; KCl, 1.0; CaCl2, 5; HEPES, 10; Glucose, 10; pH adjusted to 7.4 with NaOH (refrigerated until use). • c) Holding potential: −70 mV, potential during agonist/PAM application: −40 mV. Recording procedure: • a) Extracellular buffer will be loaded into the PPC plate wells (11 μL per well). Cell suspension will be pipetted into the wells (9 μL per well) of the PPC planar electrode. • b) Whole-cell recording configuration will be established via patch perforation with membrane currents recorded by on-board patch clamp amplifiers. • c) Two recordings (scans) will be performed. First, during pre-application of test article alone (duration of pre-application—5 min) and second, during test articles and agonist (EC20 L-glutamate and 30 μM glycine) co-application to detect positive modulatory effects of the test article.
Test Article Administration: The first pre-application will consist of the addition of 20 μL of 2× concentrated test article solution and, second, of 20 μL of 1× concentrated test article and agonist at 10 μL/s (2 second total application time).
Turning to `C[C@H](CCC1(O)CCC(F)(F)CC1)[C@H]1CC[C@H]2[C@@H]3CC=C4C[C@@](C)(O)CC[C@]4(C)[C@H]3CC[C@]12C` [Compound 1], the activation at 3 µM was over 150%.
Same read-out and setting: to `C[C@H](CCC1(O)CCCCC1)[C@H]1CC[C@H]2[C@@H]3CC=C4C[C@@](C)(O)CC[C@]4(C)[C@H]3CC[C@]12C` [Compound 2] belongs over 150%.
Consider `C[C@H](CCC1(O)CCCC1)[C@H]1CC[C@H]2[C@@H]3CC=C4C[C@@](C)(O)CC[C@]4(C)[C@H]3CC[C@]12C` [Compound 3], for which the activation at 3 µM is over 150%.
For the compound `C[C@H](CCC1(O)CCC1)[C@H]1CC[C@H]2[C@@H]3CC=C4C[C@@](C)(O)CC[C@]4(C)[C@H]3CC[C@]12C` [Compound 4], the activation at 3 µM lay within 100 to 150%.
On the same count and under the same terms, to `C[C@H](CC[C@]1(O)CCOC1)[C@H]1CC[C@H]2[C@@H]3CC=C4C[C@@](C)(O)CC[C@]4(C)[C@H]3CC[C@]12C` [Compound 5-A] belongs 100 to 150%; to `C[C@H](CC[C@@]1(O)CCOC1)[C@H]1CC[C@H]2[C@@H]3CC=C4C[C@@](C)(O)CC[C@]4(C)[C@H]3CC[C@]12C` [Compound 5-B], over 150%.
As to `C[C@H](CCC1(O)CCOC1)[C@H]1CC[C@H]2[C@@H]3CC=C4C[C@@](C)(O)CC[C@]4(C)[C@H]3CC[C@]12C` (some centres unmarked) [Compound 5], the activation at 3 µM is over 150%.
Turning to `C[C@H](CCC1(O)CCOCC1)[C@H]1CC[C@H]2[C@@H]3CC=C4C[C@@](C)(O)CC[C@]4(C)[C@H]3CC[C@]12C` [Compound 6], the activation at 3 µM fell in the range of 100 to 150%.
For `C[C@H](CCC1(O)CCN(C)CC1)[C@H]1CC[C@H]2[C@@H]3CC=C4C[C@@](C)(O)CC[C@]4(C)[C@H]3CC[C@]12C` [Compound 8], the activation at 3 µM was 10 to 100%.
Turning to `CC(=O)N1CCC(O)(CC[C@@H](C)[C@H]2CC[C@H]3[C@@H]4CC=C5C[C@@](C)(O)CC[C@]5(C)[C@H]4CC[C@]23C)CC1` [Compound 9], the activation at 3 µM was over 150%.
As to `C[C@H](CCC1(O)CCCOC1)[C@H]1CC[C@H]2[C@@H]3CC=C4C[C@@](C)(O)CC[C@]4(C)[C@H]3CC[C@]12C` (some centres unmarked) [Compound 11], the activation at 3 µM is over 150%.
For `CC[C@]1(O)CC[C@@]2(C)C(=CC[C@H]3[C@@H]4CC[C@H]([C@H](C)CCC5(O)CCC(F)(F)CC5)[C@@]4(C)CC[C@@H]32)C1` [Compound 12], the activation at 3 µM was over 150%.
As to `CC[C@]1(O)CC[C@@]2(C)C(=CC[C@H]3[C@@H]4CC[C@H]([C@H](C)CCC5(O)CCC(C)(C)CC5)[C@@]4(C)CC[C@@H]32)C1` [Compound 13], the activation at 3 µM was 10 to 100%.
Regarding `CC[C@]1(O)CC[C@@]2(C)C(=CC[C@H]3[C@@H]4CC[C@H]([C@H](C)CCC5(O)CCOCC5)[C@@]4(C)CC[C@@H]32)C1` [Compound 14], the activation at 3 µM is over 150%.
Regarding `CC[C@]1(O)CC[C@@]2(C)C(=CC[C@H]3[C@@H]4CC[C@H]([C@H](C)CCC5(O)CCCOC5)[C@@]4(C)CC[C@@H]32)C1` (some centres unmarked) [Compound 15], the activation at 3 µM was over 150%.
For `C[C@H](CCC1(O)CCC(F)(F)CC1)[C@H]1CC[C@H]2[C@@H]3CC[C@H]4C[C@@](C)(O)CC[C@]4(C)[C@H]3CC[C@]12C` [Compound 16], the activation at 3 µM lay in the range of 10 to 100%.
Regarding `C[C@H](CC[C@]1(O)CCOC1)[C@H]1CC[C@H]2[C@@H]3CC[C@H]4C[C@@](C)(O)CC[C@]4(C)[C@H]3CC[C@]12C` [Compound 17], the activation at 3 µM was over 150%.
Turning to `C[C@H](CCC1(O)CCOCC1)[C@H]1CC[C@H]2[C@@H]3CC[C@H]4C[C@@](C)(O)CC[C@]4(C)[C@H]3CC[C@]12C` [Compound 18], the activation at 3 µM was over 150%.
Regarding `C[C@H](CCC1(O)CCCOC1)[C@H]1CC[C@H]2[C@@H]3CC[C@H]4C[C@@](C)(O)CC[C@]4(C)[C@H]3CC[C@]12C` (some centres unmarked) [Compound 19], the activation at 3 µM was over 150%.
Regarding `C[C@H](CCC1(O)CCC(C)(C)CC1)[C@H]1CC[C@H]2[C@@H]3CC[C@H]4C[C@@](C)(O)CC[C@]4(C)[C@H]3CC[C@]12C` [Compound 20], the activation at 3 µM was in the range of 10 to 100%.
Take `CC[C@]1(O)CC[C@@]2(C)[C@@H](CC[C@@H]3[C@@H]2CC[C@]2(C)[C@@H]([C@H](C)CCC4(O)CCC(F)(F)CC4)CC[C@@H]32)C1` [Compound 21]: the activation at 3 µM was over 150%.
On to `CC[C@]1(O)CC[C@@]2(C)[C@@H](CC[C@@H]3[C@@H]2CC[C@]2(C)[C@@H]([C@H](C)CCC4(O)CCC(C)(C)CC4)CC[C@@H]32)C1` [Compound 22], for which the activation at 3 µM was 10 to 100%.
With `CC[C@]1(O)CC[C@@]2(C)[C@@H](CC[C@@H]3[C@@H]2CC[C@]2(C)[C@@H]([C@H](C)CCC4(O)CCOCC4)CC[C@@H]32)C1` [Compound 23], the activation at 3 µM was over 150%.
As for `CC[C@]1(O)CC[C@@]2(C)[C@@H](CC[C@@H]3[C@@H]2CC[C@]2(C)[C@@H]([C@H](C)CCC4(O)CCCOC4)CC[C@@H]32)C1` (some centres unmarked) [Compound 24], the activation at 3 µM was over 150%.

Still in this experiment, the particulars now being: HEK293, read-out: GluN2A PCA IWB Ephys % potentiation at 3 μM.
Turning to `C[C@H](CCC1(O)CCNCC1)[C@H]1CC[C@H]2[C@@H]3CC=C4C[C@@](C)(O)CC[C@]4(C)[C@H]3CC[C@]12C` [Compound 7], the activation at 3 µM lay in the range of 100 to 150%.
`C[C@H](CCC1(O)CCC(C)(C)CC1)[C@H]1CC[C@H]2[C@@H]3CC=C4C[C@@](C)(O)CC[C@]4(C)[C@H]3CC[C@]12C` [Compound 10]: the activation at 3 µM lay within 10 to 100%.

For the origin of these results see patent US12448409B2, “Oxysterols and methods of use thereof” (priority 2016, dated 2025).
